Experimental data taken from patent US20260125421A1, “ANTIVIRAL COMPOUNDS” (Hoffmann-La Roche Inc., priority 2022, published 2026).

Experiments:
Assay in all cases: biochemical
SARS-CoV-2 3CL^pro = biological target: T1, SARS-CoV-2 3CL^pro (Severe acute respiratory syndrome coronavirus 2, UniProt P0DTD1)
T1 construct: […]; made in house; host or cells: Escherichia coli

HCoV-229E 3CL^pro = biological target: T2, HCoV-229E 3CL^pro (Human coronavirus 229E, UniProt P0C6X1)
T2 construct: […]; made in house; host or cells: E. coli BL21 (DE3)
T2 sequence (P0C6X1 2966-3267): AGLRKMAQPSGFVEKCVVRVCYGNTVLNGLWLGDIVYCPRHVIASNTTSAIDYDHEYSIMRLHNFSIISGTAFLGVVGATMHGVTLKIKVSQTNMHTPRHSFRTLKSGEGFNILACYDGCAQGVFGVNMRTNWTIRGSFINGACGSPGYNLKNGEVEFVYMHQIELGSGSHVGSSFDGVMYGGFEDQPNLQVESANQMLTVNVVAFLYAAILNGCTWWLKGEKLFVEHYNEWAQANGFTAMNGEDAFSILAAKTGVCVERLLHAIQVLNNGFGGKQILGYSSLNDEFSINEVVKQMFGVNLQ

MERS-CoV 3CL^pro = MERS-CoV 3CL^pro (Middle East respiratory syndrome-related coronavirus, UniProt K9N7C7)
Sequence of MERS-CoV 3CL^pro (K9N7C7 3248-3553): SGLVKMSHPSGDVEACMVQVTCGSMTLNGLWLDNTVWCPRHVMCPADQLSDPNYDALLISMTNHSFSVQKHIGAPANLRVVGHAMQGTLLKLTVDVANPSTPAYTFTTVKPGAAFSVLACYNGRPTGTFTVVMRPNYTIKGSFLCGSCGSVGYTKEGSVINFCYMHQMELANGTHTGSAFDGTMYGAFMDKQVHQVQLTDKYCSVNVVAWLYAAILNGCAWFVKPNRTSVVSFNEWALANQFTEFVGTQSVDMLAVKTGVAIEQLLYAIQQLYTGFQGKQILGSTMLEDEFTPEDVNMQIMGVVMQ

SARS-CoV 3CL^pro = SARS-CoV 3CL^pro (Severe acute respiratory syndrome coronavirus, UniProt P0C6X7)

| Compound | IC50 (SARS-CoV-2 3CL^pro) | IC50 (HCoV-229E 3CL^pro) | IC50 (MERS-CoV 3CL^pro) | IC50 (SARS-CoV 3CL^pro) |
| --- | --- | --- | --- | --- |
| CC(C)(C)[C@H](NC(=O)[C@@H]1CC1(F)F)C(=O)N1C[C@@H]2CCC[C@@H]2[C@H]1C(=O)NN(C[C@H]1C(=O)N[C@@H]2C[C@@H]21)C(=O)[C@H](F)Cl [Example 35, (1S)-N-[(1S)-1-[(3S,3aS,6aR)-3-[[[(2R)-2-chloro-2-fluoro-acetyl]-[[(1R,4S,5R)-3-oxo-2-azabicyclo[3.1.0]hexan-4-yl]methyl]amino]carbamoyl]-3,3a,4,5,6,6a-hexahydro-1H-cyclopenta[c]pyrrole-2-carbonyl]-2,2-dimethyl-propyl]-2,2-difluoro-cyclopropanecarboxamide] | 10 nM | 41 nM | 117 nM | 7 nM |
| CC1(C)C[C@H](CN(NC(=O)[C@@H]2[C@@H]3[C@H](CN2C(=O)[C@@H](NC(=O)[C@@H]2CC2(F)F)C(C)(C)C)C3(C)C)C(=O)[C@H](F)Cl)C(=O)N1 [Example 24, (1S)-N-[(1S)-1-[(1R,2S,5S)-2-[[[(2R)-2-chloro-2-fluoro-acetyl]-[[(3R)-5,5-dimethyl-2-oxo-pyrrolidin-3-yl]methyl]amino]carbamoyl]-6,6-dimethyl-3-azabicyclo[3.1.0]hexane-3-carbonyl]-2,2-dimethyl-propyl]-2,2-difluoro-cyclopropanecarboxamide] | 87 nM | 2250 nM | 1400 nM | 177 nM |
| C[C@@H]1C[C@H](CN(NC(=O)[C@@H]2[C@H]3CCC[C@H]3CN2C(=O)[C@@H](NC(=O)[C@@H]2CC2(F)F)C(C)(C)C)C(=O)[C@@H](F)Cl)C(=O)N1 [Example 29, (1S)-N-[(1S)-1-[(3S,3aS,6aR)-3-[[[(2S)-2-chloro-2-fluoro-acetyl]-[[(3R,5R)-5-methyl-2-oxo-pyrrolidin-3-yl]methyl]amino]carbamoyl]-3,3a,4,5,6,6a-hexahydro-1H-cyclopenta[c]pyrrole-2-carbonyl]-2,2-dimethyl-propyl]-2,2-difluoro-cyclopropanecarboxamide] | 36 nM | 233 nM | 344 nM | 93 nM |
| CC(C)(C)[C@H](NC(=O)[C@@H]1CC1(F)F)C(=O)N1C[C@@H]2CCC[C@@H]2[C@H]1C(=O)NN(C[C@H]1C(=O)N[C@@H]2C[C@@H]21)C(=O)[C@@H](F)Cl [Example 37, (1S)-N-[(1S)-1-[(3S,3aS,6aR)-3-[[[(2S)-2-chloro-2-fluoro-acetyl]-[[(1R,4S,5R)-3-oxo-2-azabicyclo[3.1.0]hexan-4-yl]methyl]amino]carbamoyl]-3,3a,4,5,6,6a-hexahydro-1H-cyclopenta[c]pyrrole-2-carbonyl]-2,2-dimethyl-propyl]-2,2-difluoro-cyclopropanecarboxamide] | 17 nM | 191 nM | 320 nM | 21 nM |
| CC1(C)C[C@@H](CN(NC(=O)[C@@H]2[C@H]3CCC[C@H]3CN2C(=O)[C@@H](NC(=O)C(F)F)C(C)(C)C)C(=O)[C@H](F)Cl)C(=O)N1 [Example 11, N-[(1S)-1-[(3S,3aS,6aR)-3-[[[(2R)-2-chloro-2-fluoro-acetyl]-[[(3S)-5,5-dimethyl-2-oxo-pyrrolidin-3-yl]methyl]amino]carbamoyl]-3,3a,4,5,6,6a-hexahydro-1H-cyclopenta[c]pyrrole-2-carbonyl]-2,2-dimethyl-propyl]-2,2-difluoro-acetamide] | 9 nM | 1690 nM | 909 nM | 14 nM |
| CC(C)(C)[C@H](NC(=O)[C@@H]1CC1(F)F)C(=O)N1C[C@@H]2CCC[C@@H]2[C@H]1C(=O)NN(C[C@H]1CC2(CC2)NC1=O)C(=O)[C@H](F)Cl [Example 26, (1S)-N-[(1S)-1-[(3S,3aS,6aR)-3-[[[(2R)-2-chloro-2-fluoro-acetyl]-[[(6R)-5-oxo-4-azaspiro[2.4]heptan-6-yl]methyl]amino]carbamoyl]-3,3a,4,5,6,6a-hexahydro-1H-cyclopenta[c]pyrrole-2-carbonyl]-2,2-dimethyl-propyl]-2,2-difluoro-cyclopropanecarboxamide] | 12 nM | 45 nM | 111 nM | 11 nM |
| C[C@H]1C[C@H](CN(NC(=O)[C@@H]2[C@@H]3[C@H](CN2C(=O)[C@@H](NC(=O)[C@@H]2CC2(F)F)C(C)(C)C)C3(C)C)C(=O)[C@H](F)Cl)C(=O)N1 [Example 31, (1S)-N-[(1S)-1-[(1R,2S,5S)-2-[[[(2R)-2-chloro-2-fluoro-acetyl]-[[(3R,5S)-5-methyl-2-oxo-pyrrolidin-3-yl]methyl]amino]carbamoyl]-6,6-dimethyl-3-azabicyclo[3.1.0]hexane-3-carbonyl]-2,2-dimethyl-propyl]-2,2-difluoro-cyclopropanecarboxamide] | 25 nM | 116 nM | 555 nM | 53 nM |
| CC1(C)C[C@@H](CN(NC(=O)[C@@H]2[C@H]3CCC[C@H]3CN2C(=O)[C@@H](NC(=O)[C@H](F)Cl)C(C)(C)C)C(=O)[C@H](F)Cl)C(=O)N1 [Example 14, (2R)-N-[(1S)-1-[(3S,3aS,6aR)-3-[[[(2R)-2-chloro-2-fluoro-acetyl]-[[(3S)-5,5-dimethyl-2-oxo-pyrrolidin-3-yl]methyl]amino]carbamoyl]-3,3a,4,5,6,6a-hexahydro-1H-cyclopenta[c]pyrrole-2-carbonyl]-2,2-dimethyl-propyl]-2-chloro-2-fluoro-acetamide] | 9 nM | 1270 nM | 1240 nM | 9 nM |
| CCC(CC)[C@H](NC(=O)C(F)F)C(=O)N1C[C@@H]2CCC[C@@H]2[C@H]1C(=O)NN(C[C@H]1CC(C)(C)NC1=O)C(=O)[C@@H](F)Cl [Example 18, N-[(1S)-1-[(3S,3aS,6aR)-3-[[[(2S)-2-chloro-2-fluoro-acetyl]-[[(3R)-5,5-dimethyl-2-oxo-pyrrolidin-3-yl]methyl]amino]carbamoyl]-3,3a,4,5,6,6a-hexahydro-1H-cyclopenta[c]pyrrole-2-carbonyl]-2-ethyl-butyl]-2,2-difluoro-acetamide] | 12 nM | 332 nM | 345 nM | 23 nM |
| CC(C)(C)[C@H](NC(=O)[C@@H]1CC1(F)F)C(=O)N1C[C@@H]2CCC[C@@H]2[C@H]1C(=O)NN(C[C@H]1C(=O)N[C@H]2C[C@H]21)C(=O)[C@H](F)Cl [Example 36, (1S)-N-[(1S)-1-[(3S,3aS,6aR)-3-[[[(2R)-2-chloro-2-fluoro-acetyl]-[[(1S,4S,5S)-3-oxo-2-azabicyclo[3.1.0]hexan-4-yl]methyl]amino]carbamoyl]-3,3a,4,5,6,6a-hexahydro-1H-cyclopenta[c]pyrrole-2-carbonyl]-2,2-dimethyl-propyl]-2,2-difluoro-cyclopropanecarboxamide] | 13 nM | 54 nM | 174 nM | 14 nM |
| CC(C)(C)[C@H](NC(=O)[C@@H]1CC1(F)F)C(=O)N1C[C@@H]2CCC[C@@H]2[C@H]1C(=O)NN(C[C@@H]1C(=O)N[C@@H]2C[C@H]12)C(=O)[C@@H](F)Cl [Example 40, (1S)-N-[(1S)-1-[(3S,3aS,6aR)-3-[[[(2S)-2-chloro-2-fluoro-acetyl]-[[(1R,4R,5R)-3-oxo-2-azabicyclo[3.1.0]hexan-4-yl]methyl]amino]carbamoyl]-3,3a,4,5,6,6a-hexahydro-1H-cyclopenta[c]pyrrole-2-carbonyl]-2,2-dimethyl-propyl]-2,2-difluoro-cyclopropanecarboxamide] | 64 nM | 257 nM | 538 nM | 122 nM |
| CC1(C)C[C@@H](CN(NC(=O)[C@@H]2[C@@H]3[C@H](CN2C(=O)[C@@H](NC(=O)[C@H](F)Cl)C(C)(C)C)C3(C)C)C(=O)[C@H](F)Cl)C(=O)N1 [Example 20] | 24 nM | 2020 nM | 1070 nM | 32 nM |
| CC1(C)C[C@@H](CN(NC(=O)[C@@H]2[C@H]3CCC[C@H]3CN2C(=O)[C@@H](NC(=O)C(F)F)C(C)(C)C)C(=O)[C@@H](F)Cl)C(=O)N1 [Example 6, N-[(1S)-1-[(3S,3aS,6aR)-3-[[[(2S)-2-chloro-2-fluoro-acetyl]-[[(3S)-5,5-dimethyl-2-oxo-pyrrolidin-3-yl]methyl]amino]carbamoyl]-3,3a,4,5,6,6a-hexahydro-1H-cyclopenta[c]pyrrole-2-carbonyl]-2,2-dimethyl-propyl]-2,2-difluoro-acetamide] | 30 nM | > 10000 nM | 2950 nM | 41 nM |
| CC[C@H](C)[C@H](NC(=O)C1(F)CC1)C(=O)N1C[C@H]2[C@@H]([C@H]1C(=O)NN(C[C@H]1CC(C)(C)NC1=O)C(=O)[C@H](F)Cl)C2(C)C [Example 1b, N-[(1S,2S)-1-[(1R,2S,5S)-2-[[[(2R)-2-chloro-2-fluoro-acetyl]-[[(3R)-5,5-dimethyl-2-oxo-pyrrolidin-3-yl]methyl]amino]carbamoyl]-6,6-dimethyl-3-azabicyclo[3.1.0]hexane-3-carbonyl]-2-methyl-butyl]-1-fluoro-cyclopropanecarboxamide] | 13 nM | 131 nM | 234 nM | 18 nM |
| C[C@H]1C[C@H](CN(NC(=O)[C@@H]2[C@H]3CCC[C@H]3CN2C(=O)[C@@H](NC(=O)[C@@H]2CC2(F)F)C(C)(C)C)C(=O)[C@H](F)Cl)C(=O)N1 [Example 28, (1S)-N-[(1S)-1-[(3S,3aS,6aR)-3-[[[(2R)-2-chloro-2-fluoro-acetyl]-[[(3R,5S)-5-methyl-2-oxo-pyrrolidin-3-yl]methyl]amino]carbamoyl]-3,3a,4,5,6,6a-hexahydro-1H-cyclopenta[c]pyrrole-2-carbonyl]-2,2-dimethyl-propyl]-2,2-difluoro-cyclopropanecarboxamide] | 30 nM | 492 nM | 1160 nM | 74 nM |
